The subject of this experiment is Human CD34+ hematopoietic stem cells (HSCs) / erythroid progenitor cell cultures. The experiment can be described thus: Effect of myo-inositol on erythroid cell growth and enucleation (three-stage culture, maturation phase). As to conditions: third culture medium (maturation phase, 24 well plate) supplemented with an additional 1 g/L myo-inositol vs not supplemented control (basal IMDM 0.0072 g/L), FACS-based cell counting. As for the experimental part:
The effect of myo-inositol on erythroid progenitor cell cultures was examined. Human CD34^+ hematopoietic stem cells (HSCs) were cultured in a three-stage process to generate enucleated erythroid cells. In the first stage, the CD34+ HSCs were expanded in a T-flask in a first culture medium containing IMDM supplemented recombinant human insulin, recombinant human transferrin, recombinant human SCF, recombinant IL-3, recombinant Flt-3 ligand, and recombinant human IL-3. Subsequently, cells were transduced with a lentiviral vector encoding phenylalanine ammonia lyase. After transduction, cells were cultured in a 50 L bioreactor culture vessel containing a second culture medium containing IMDM, supplemented with recombinant human erythropoietin, recombinant human SCF, recombinant human IL3, recombinant human insulin, dexamethasone, and recombinant human transferrin. For the third stage of the process (maturation phase), an aliquot of cells were seeded into 24 well plate containing a third culture medium containing IMDM supplemented with recombinant human EPO, recombinant human SCF, recombinant human insulin, recombinant transferrin, human AB serum, and human plasma. […] Periodic sampling and cell counting was performed during the third stage using a fluorescence-activated cell sorting-based cell counter.

From patent US20210130780A1, “METHODS OF GENERATING ENUCLEATED ERYTHROID CELLS USING MYO-INOSITOL” (Rubius Therapeutics, Inc., priority 2019, published 2021) come the findings set out here.

For `O[C@H]1[C@H](O)[C@@H](O)[C@H](O)[C@@H](O)[C@H]1O` [myo-inositol], the “total cell density of erythroid cells” value (FIG. 1) was “significantly increase”. Moreover, where the note is “FIG. 2”, the “enucleated erythroid cell density” value was “significantly increase”.
